Assay results as given in US20040076974A1, “Liver necrosis predictive genes” (priority 2002, published 2004).
Where two headings read alike, the source gives them in different places.

Tested on: Sprague Dawley rats
Protocol: Sprague Dawley rats Crl:CD from Charles River, Raleigh, N.C. were divided into treated rats that receive a specific concentration of the compound (see Table 1) and. control rats that only received the vehicle in which the compound is mixed (e.g., saline).
At specified timepoints (6 h, 24 h and 72 h) after administration (intraperitoneal route) of the compound, a set number of rats (usually 3 control and 3 treated) were euthanized and tissues collected. Each, rat was heavily sedated with an overdose of CO2 by inhalation and a maximum amount of blood drawn. Exsanguination of the rat by this drawing of blood kills the rat. The method of collecting the tissues is very important and ensures preserving the quality of the mRNA in the tissues. The body of the rat was then opened up and prosectors rapidly removed the tissues (including) and immediately placed them into liquid nitrogen. […] The organs/tissues were then packaged into well-labeled plastic freezer quality bags and stored at −80 degrees until needed for isolation of the mRNA from a portion of the organ/tissue sample.
Histopathology scores for each animal (assigned on a compound-dose basis as indicated in Table 1) were entered with gene expression data by using the GeneSpring™ ‘Drawn Gene’ function. Correlations between the histopathology scores and gene expression were conducted with the distance measures listed below:
Toxicity classifications were entered for training and test set as a parameter column. Toxicity, as defined by observation of necrosis in the at 72 hours after treatment, was entered as a “yes” or “no” for each animal in a compound-dose group. Additionally, a parameter column for random histopathology classification was designated. This was done by randomly assigning the same number of “yes” and “no” calls to the individual animals.

[1] = Sprague Dawley, rat, in vivo, ip, 50 mg/kg, 72 h
[2] = Sprague Dawley, rat, in vivo, ip, 200 mg/kg, 72 h

## Nc1nc(O)c2ncn(COC(CO)CO)c2n1 [gancyclovir]
[1]
  Score (histopathology liver necrosis severity score): 1
[2]
  Score (histopathology liver necrosis severity score): 1
rat, in vivo
  Liver Toxicity Necrosis Classification: no
rat, in vivo, ip, 50 mg/kg
  Liver Necrosis: no
rat, in vivo, ip, 200 mg/kg
  Liver Necrosis: no

## NC(=O)NO [hydroxyurea]
Sprague Dawley, rat, in vivo, ip, 250 mg/kg, 72 h
  Score (histopathology liver necrosis severity score): 1
Sprague Dawley, rat, in vivo, ip, 1000 mg/kg, 72 h
  Score (histopathology liver necrosis severity score): 1
rat, in vivo
  Liver Toxicity Necrosis Classification: no
rat, in vivo, ip, 250 mg/kg
  Liver Necrosis: no
rat, in vivo, ip, 1000 mg/kg
  Liver Necrosis: no

## NNC(=O)c1ccncc1 [isoniazid]
[1]
  Score (histopathology liver necrosis severity score): 1
[2]
  Score (histopathology liver necrosis severity score): 1
rat, in vivo
  Liver Toxicity Necrosis Classification: no
rat, in vivo, ip, 50 mg/kg
  Liver Necrosis: no
rat, in vivo, ip, 200 mg/kg
  Liver Necrosis: no

## CC(=O)N1CCN(c2ccc(OCC3COC(Cn4ccnc4)(c4ccc(Cl)cc4Cl)O3)cc2)CC1 (stereo not drawn) [ketoconazole]
Sprague Dawley, rat, in vivo, ip, 20 mg/kg, 72 h
  Score (histopathology liver necrosis severity score): 1
Sprague Dawley, rat, in vivo, ip, 80 mg/kg, 72 h
  Score (histopathology liver necrosis severity score): 1
rat, in vivo
  Liver Toxicity Necrosis Classification: no
rat, in vivo, ip, 20 mg/kg
  Liver Necrosis: no
rat, in vivo, ip, 80 mg/kg
  Liver Necrosis: no

## CN(Cc1cnc2nc(N)nc(N)c2n1)c1ccc(C(=O)N[C@@H](CCC(=O)O)C(=O)O)cc1 [methotrexate]
Sprague Dawley, rat, in vivo, ip, 5 mg/kg, 72 h
  Score (histopathology liver necrosis severity score): 1
rat, in vivo
  Liver Toxicity Necrosis Classification: no
rat, in vivo, ip, 5 mg/kg
  Liver Necrosis: no

## C=CCN1CC[C@]23c4c5ccc(O)c4O[C@H]2C(=O)CC[C@@]3(O)[C@H]1C5 [naloxone]
rat, in vivo
  Liver Toxicity Necrosis Classification: no
rat, in vivo, ip
  Score (histopathology liver necrosis severity score): 1
rat, intraperitoneal, dose 180 mg/kg, 72 hours after treatment
  Liver Necrosis: no
rat, intraperitoneal, dose 180 mg/kg, 72 hours; 1 = not remarkable, 2 and higher increasing severity
  Score (histopathology liver necrosis severity score): 1
rat, intraperitoneal, dose 45 ml/kg, 72 hours after treatment
  Liver Necrosis: no

## COc1ccc(C[C@H](N)C(=O)N[C@H]2[C@@H](O)[C@H](n3cnc4c(N(C)C)ncnc43)O[C@@H]2CO)cc1 [puromycin]
Sprague Dawley, rat, in vivo, ip, 38 mg/kg, 72 h
  Score (histopathology liver necrosis severity score): 1
Sprague Dawley, rat, in vivo, ip, 150 mg/kg, 72 h
  Score (histopathology liver necrosis severity score): 1
rat, in vivo
  Liver Toxicity Necrosis Classification: no
rat, in vivo, ip, 38 mg/kg
  Liver Necrosis: no
rat, in vivo, ip, 150 mg/kg
  Liver Necrosis: no

## C=C[C@H]1C[N@@]2CC[C@H]1C[C@@H]2[C@@H](O)c1ccnc2ccc(OC)cc12 [quinidine]
rat, intraperitoneal, dose 25 mg/kg, 72 hours after treatment
  Liver Necrosis: no
rat, intraperitoneal, dose 25 mg/kg, 72 hours; 1 = not remarkable, 2 and higher increasing severity
  Score (histopathology liver necrosis severity score): 1
rat, intraperitoneal, dose 100 mg/kg, 72 hours after treatment
  Liver Necrosis: no
rat, intraperitoneal, dose 100 mg/kg, 72 hours; 1 = not remarkable, 2 and higher increasing severity
  Score (histopathology liver necrosis severity score): 1

## Cn1c(=O)c2[nH]cnc2n(C)c1=O [theophylline]
Sprague Dawley, rat, in vivo, ip, 25 mg/kg, 72 h
  Score (histopathology liver necrosis severity score): 1
Sprague Dawley, rat, in vivo, ip, 100 mg/kg, 72 h
  Score (histopathology liver necrosis severity score): 1
rat, in vivo
  Liver Toxicity Necrosis Classification: no
rat, in vivo, ip, 25 mg/kg
  Liver Necrosis: no
rat, in vivo, ip, 100 mg/kg
  Liver Necrosis: no

## aflatoxin B1
rat, in vivo, ip, 1 mg/kg
  Liver Necrosis: Yes
  Score (histopathology liver necrosis severity score): 8

## carboxy methyl cellulose
rat, in vivo, ip, 30 mg/kg
  Liver Necrosis: no
  Score (histopathology liver necrosis severity score): 1

## gentamicin
At 72 h; dose 38
  Liver Toxicity Necrosis Classification: no
At 72 h; dose 150
  Liver Toxicity Necrosis Classification: no
compound-dose group at 72 h, dose 38
  Liver Toxicity Necrosis Classification: no
compound-dose group at 72 h, dose 150
  Liver Toxicity Necrosis Classification: no
compound-dose group at 72 h; dose 38
  Liver Toxicity Necrosis Classification: no
compound-dose group at 72 h; dose 150
  Liver Toxicity Necrosis Classification: no
compound-dosegroup at 72 h; dose 38
  Liver Toxicity Necrosis Classification: no
rat, intraperitoneal, dose 38 mg/kg, 72 hours after treatment
  Liver Necrosis: no
rat, intraperitoneal, dose 38 mg/kg, 72 hours; 1 = not remarkable, 2 and higher increasing severity
  Score (histopathology liver necrosis severity score): 1
rat, intraperitoneal, dose 150 mg/kg, 72 hours after treatment
  Liver Necrosis: no
rat, intraperitoneal, dose 150 mg/kg, 72 hours; 1 = not remarkable, 2 and higher increasing severity
  Score (histopathology liver necrosis severity score): 1

## lipopolysaccharide
72 h, dose 8
  Liver Toxicity Necrosis Classification: yes
72 h; dose 2
  Liver Toxicity Necrosis Classification: no
compound-dose group at 72 h, dose 2
  Liver Toxicity Necrosis Classification: no
compound-dose group at 72 h, dose 8
  Liver Toxicity Necrosis Classification: yes
compound-dose group at 72 h; CCL4 1000, DMN 20, LPS 8
  Liver Toxicity Necrosis Classification: yes
compound-dose group at 72 h; dose 2
  Liver Toxicity Necrosis Classification: no
compound-dosegroup at 72 h; dose 2
  Liver Toxicity Necrosis Classification: no
compound-dosegroup at 72 h; dose 8
  Liver Toxicity Necrosis Classification: yes
rat, high dose of Table 1, liver necrosis at 72 hours
  toxicity at the high dose: produced toxicity
rat, intraperitoneal, dose 2 mg/kg, 72 hours after treatment
  Liver Necrosis: no
rat, intraperitoneal, dose 2 mg/kg, 72 hours; 1 = not remarkable, 2 and higher increasing severity
  Score (histopathology liver necrosis severity score): 1
rat, intraperitoneal, dose 8 mg/kg, 72 hours after treatment
  Liver Necrosis: Yes
rat, intraperitoneal, dose 8 mg/kg, 72 hours; 1 = not remarkable, 2 and higher increasing severity
  Score (histopathology liver necrosis severity score): 6
rat, low dose of Table 1, liver necrosis at 72 hours
  toxicity at the low dose: not at the low dose

## polyethylene glycol
rat, in vivo, ip
  Liver Necrosis: no
